The values that follow come from patent publication US11299453B2 (Universität zu Köln, priority 2017, dated 2022).

The test system of data set [1] is murine αPIG-AT25 iPSCs, αPIG44-D3 ESCs and R1 ESCs. As to the kind of experiment: Cell viability (PrestoBlue), results pooled over murine PSC lines. Type of data set: cell-based. The note with it: 40 μM, 72 h. The source says: (§1) The transgenic murine induced pluripotent stem cell (miPSC) line αPIG-AT25 was generated from the miPSC line TiB7.4 as described in Fatima A et al., Stem Cell Res. 2016 Sep.; 17(2):266-272. The murine embryonic stem cell (ESC) line αPIG44-D3 was equally derived from D3 ESC line. Both transgenic mPSC lines express the IRES-linked genes encoding puromycin N-acetyl-aminotransferase (PAC) and enhanced green fluorescent protein (eGFP) which are under the control of cardiac alpha myosin heavy chain (α-MHC) promoter. They were cultured on mitomycin-inactivated mouse embryonic fibroblasts (MEF) in maintenance medium composed of Dulbecco's minimal essential medium (DMEM) with GlutaMAX (Life Technologies, Carlsbad, USA) supplemented with 15% fetal bovine serum (FBS, Sigma-Aldrich, St. Louis, USA), 1× non-essential amino acids (NEEA, Life Technologies), 50 μM β-mercaptoethanol (β-ME, Life Technologies) and 1000 U/ml of murine leukemia inhibitory factor (mLIF, ORF Genetics, Kopavogur, Iceland). Cell passaging was performed every 2-3 days by dissociating the cells with 0.05% trypsin-EDTA (Life Technologies) and seeding 1-2×10^4 cells/cm^2. The wild type mESC line R1 was cultured on cell culture plates coated with 0.1% gelatin (Sigma-Aldrich) and maintained like the transgenic mPSCs.
(§2) Serial dilutions of DMSO stock solutions of PluriSIn #1 (Sigma-Aldrich, catalog number SML0682) or one of small molecules SM1-SM10, were prepared from 20 mM stock solutions with cell culture medium. Murine PSCs were dissociated with 0.05% trypsin-EDTA, seeded on 0.1% gelatin-coated 96-well plates with a density of 5000 cells/well and cultured in maintenance medium supplemented with 1000 U/ml of mLIF. After 1 day, cells were incubated with 40 μM PluriSIn #1 and derivatives for 72 h or with 0.01-25 μM SMs for 48 h, respectively. For treatment of corresponding PSC-derived CMs with SMs, puromycin-selected miPSC-CMs from day 14 of differentiation were dissociated with 0.25% trypsin-EDTA as described above and plated on 96-well plates (5×10^4 cells/well) which were pre-coated with 5 μg/ml fibronectin (PromoCell, Heidelberg, Germany). After culturing miPSC-CMs with 8 μg/ml puromycin for 2 more days, they were incubated in differentiation medium supplemented with 0.1-100 μM of SMs for 48-72 h. Following small molecule treatment, cell viability was determined with PrestoBlue cell viability reagent (Life Technologies). To this end, cells were washed with PBS (with calcium and magnesium, Life Technologies) and incubated with PrestoBlue reagent diluted in cell culture medium for 40 min at 37° C.
(§3) Fluorescence intensities correlating with the number of viable cells in the wells were measured in black flat-bottom 96-well plates (Greiner Bio-One, Kremsmünster, Austria) with a GeniosPro microplate reader (Tecan, Männedorf, Schweiz).
To confirm the cytotoxicity of the compounds to PSCs, toxicity test were also run with murine ESC lines αPIG44-D3 and R1, and for comparison with αPIG-AT25 murine iPSC line. The cells were incubated for 48 h with compounds SM1, SM2, SM4, SM5, SM6 and SM8 in concentrations of 0.01 μM and 10 μM. Cell culture was performed as described above. Experiments were run in quadruplicate and negative and positive control cells were treated with 0.05% DMSO or 8 μg/ml puromycin, respectively. Cell viability was determined using PrestoBlue cell viability reagent.
Murine αPIG-AT25 iPSCs, αPIG44-D3 ESCs and R1 ESCs were incubated with 40 μM PluriSIn #1 (Sigma-Aldrich, catalog number SML0682) for 72 h. Cell culture was performed as described above for determination of the compounds. Experiments were run in quadruplicate and negative and positive control cells were treated with 0.08% DMSO or 8 μg/ml puromycin, respectively. The cell viability was determined using PrestoBlue cell viability reagent. […]

Data set [2] relates to human pluripotent stem cells. The following applies: exposure for 48 hours; cited from earlier work.
For a further data set, the system named is teratoma formation. The following applies: after transplanting 1 million cells into immunodeficient mice; cited from earlier work.
The test system of a further data set is murine αPIG-AT25 iPSCs. As to the kind of experiment: Cell viability (PrestoBlue) of murine iPSCs after compound treatment. The data set is classed as cell-based. The following applies: 48 h; for toxicity to miPSCs (in words): 0.1-25 μM; for concentration dependence of effect on miPSC viability: 0.1, 1, 10 and 25 μM.
Description: as §1, §2, §3
IC50 values were determined by regression analysis of dose-response curves upon logarithmic transformation. Microscopic images of PSCs were taken with a Zeiss Axiovert 100 inverted microscope and GFP images of CMs were captured with a Zeiss Axiovert 200M fluorescence microscope (both Carl Zeiss, Oberkochen, Germany) and analyzed with Zeiss Axiovision 4.5 software (Carl Zeiss).
The cytotoxicity of the compounds according to formulas SM1 to SM10 to pluripotent stem cells (PSCs) was determined in a population of murine αPIG-AT25 iPSCs, which were incubated for 48 h with compounds SM1 to SM10 in concentrations of 0.1 μM, 1 μM, 10 μM and 25 μM. Cell culture was performed as described above. Experiments were run in quadruplicate and negative and positive control cells were treated with 0.125% DMSO or 8 μg/ml puromycin, respectively. The cell viability was determined using PrestoBlue cell viability reagent. […]

The subject of data set [3] is human neural progenitor cells derived from the human iPSC line Royan-hiPSC4. Briefly: Cell viability (PrestoBlue) of human iPSC-derived neural progenitor cells. The following applies: 1 μM, 72 h of treatment. Type of data set: cell-based. The method, then:
To confirm the cytotoxicity of the compounds to PSCs, toxicity tests were also run with human neural progenitor cells (passage 20) derived from the human iPSC line Royan-hiPSC4 (RSCB0082). The cells were incubated for 24 h, 48 h and 72 h with compounds SM20, SM21, SM22 and SM23 in concentrations of 1 μM, 3 μM, 10 μM and 25 μM. Cell culture was performed as described above except that Koch medium was used. Experiments were run in quadruplicate and negative and positive control cells were treated with 0.001% DMSO or 0.1 μM, 1 μM, 10 μM and 25 μM of SM6, respectively. Cell viability was determined using PrestoBlue cell viability reagent.

Data set [4] concerns murine αPIG-AT25 iPSC-CM monolayers.

Take `O=C(NNc1ccccc1)c1ccncc1` [PluriSIn #1]: the “reduction of cell viability, on average over the three murine PSC lines” value in data set [1] is 51.32±10.86%. In data set [2], the “removal of human pluripotent stem cells from the culture” value is “successfully removed human pluripotent stem cells from the culture”. For the same molecule, the teratoma formation entry in the data set with teratoma formation is listed as “prevented teratoma formation”. Regarding `CN(Cc1cccc(-c2ccccc2)c1O)[C@@H]1CCCC[C@H]1N(C)Cc1cccc(-c2ccccc2)c1O` [SM3, (1R,2R)-N,N′-dimethyl-N,N′-di[(2-hydroxy-3-phenyl)-benzyl]-1,2-diaminocyclohexane], in the data set on murine αPIG-AT25 iPSCs, the “toxicity to miPSCs (in words)” value was “did not”. Turning to `CC(C)(C)c1cc(C(=O)N[C@@H]2CCCC[C@H]2NC(=O)c2cc(C(C)(C)C)cc(C(C)(C)C)c2O)c(O)c(C(C)(C)C)c1` [SM7, (1R,2R)-N,N′-di[(2-hydroxy-3,5-di-tert.- butyl)benzoyl]-1,2-diaminocyclohexane], the “toxicity to miPSCs (in words)” value with murine αPIG-AT25 iPSCs is reported as “did not”.

Regarding `CN(Cc1cc(C(C)(C)C)cc(C(C)(C)C)c1O)[C@@H]1CCCC[C@H]1N(C)Cc1cc(C(C)(C)C)cc(C(C)(C)C)c1O` [SM9, (1R,2R)-N,N′-dimethyl-N,N′-di[(2-hydroxy-3,5-di-tert.- butyl)benzyl]-1,2-diaminocyclohexane], in the data set with murine αPIG-AT25 iPSCs, the “concentration dependence of effect on miPSC viability” value was “did not show a concentration dependent effect” and the “toxicity to miPSCs (in words)” value was “did not”.

Take `CC(C)(C)c1cc(CN[C@@H]2CCCC[C@H]2NCc2cc(C(C)(C)C)cc(C(C)(C)C)c2O)c(O)c(C(C)(C)C)c1` [SM10, (1R,2R)-N,N′-di[(2-hydroxy-3,5-di-tert.- butyl)benzyl]-1,2-diaminocyclohexane]: in the data set with murine αPIG-AT25 iPSCs, the “concentration dependence of effect on miPSC viability” value is “did not show a concentration dependent effect” and the “toxicity to miPSCs (in words)” value is “did not”.

With `Oc1c(CN[C@@H]2CCCC[C@H]2NCc2cccc(-c3c(F)c(F)c(F)c(F)c3F)c2O)cccc1-c1c(F)c(F)c(F)c(F)c1F` [SM20, (1R,2R)-N,N′-di[(2-hydroxy-3-penta-fluorophenyl)-benzyl]-1,2-diaminocyclohexane], in the data set with murine αPIG-AT25 iPSCs, the “toxicity to miPSCs (in words)” value was “good toxicity”. The NPCs killed result in data set [3] is given as “eliminated all cells”. `c1ccc2[nH]c(CN[C@@H]3CCCC[C@H]3NCc3cc4ccccc4[nH]3)cc2c1` [SM21, (1R,2R)-N,N′-di[(2-indolyl)methyl]-1,2-diaminocyclohexane]: in the data set on murine αPIG-AT25 iPSCs, the “toxicity to miPSCs (in words)” value was “good toxicity”. Take `Oc1c(CN[C@@H]2CCCC[C@H]2NCc2cccc(-c3cccs3)c2O)cccc1-c1cccs1` [SM23, (1R,2R)-N,N′-di([2-hydroxy-3-(2-thienyl)]-benzyl)-1,2-diaminocyclohexane]: the “toxicity to miPSCs (in words)” value in the data set on murine αPIG-AT25 iPSCs is listed as “good toxicity”. The NPCs killed result in data set [3] is given as “eliminated all cells”. `N.N.[Cl][Pt][Cl]` [cisplatin]: in data set [4], the “apoptotic CMs (cleaved caspase-3 staining)” value is recorded as “presence of apoptotic CMs” and the “sarcomere structure (α-actinin staining)” value was “degradation of the sarcomere structure”.
